Experimental data from US20240368150A1 (Hoffmann-La Roche Inc., priority 2021, published 2024).
Read-outs that look alike come from different tables or passages of the source.

Experiments:
[1] = tested on: primary human T-cells; assay: Proliferation assay after 5 days (CellTiter-Glo, CD3 stimulation; PBS counter screen); assay type: cell-based; settings: T-cell, 120 h, CD3 stimulation; for Emax: 5 days, normalized to reference compound A1 as stimulator control = 100%, DMSO neutral control, read-out: Emax proliferation (% activation); for EC50: primary human T-cells, CellTiter-Glo after 5 days, EC50 of fitted sigmoidal curve, read-out: Tcell Proliferation CD3 EC50
How it was run: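 Compounds were added to medium-only plates, and proliferation was read 5 days later as luminescence from CellTiter-Glo 2.0, whose ATP signal is proportional to cell number. Plates and reagent were equilibrated to room temperature for 45 min before an equal volume of reagent was added, with 15 min rocking.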

[2] = tested on: primary human T-cells

## N[C@H]1CS(=O)(=O)c2cc(F)c(-c3noc(C4(C(F)(F)F)CC4)n3)cc2N(Cc2ccc(OC(F)(F)F)cc2)C1=O [Example 344, (3R)-3-amino-8-fluoro-1,1-dioxo-5-[[4-(trifluoromethoxy)phenyl]methyl]-7-[5-[1-(trifluoromethyl)cyclopropyl]-1,2,4-oxadiazol-3-yl]-2,3-dihydro-1λ^6,5-benzothiazepin-4-one]
[1]; Homo sapiens
  Emax: 120%
  EC50: 0.0697 µM
[2]
  EC50: 0.473 µM

## CC(C)Oc1ccc(CN2C(=O)[C@@H](N)CS(=O)(=O)c3cc(F)c(-c4noc(C5CN(C)CC(F)(F)C5)n4)cc32)nc1 (stereo partly drawn) [Example 346, (3R)-3-amino-7-[5-(5,5-difluoro-1-methyl-3-piperidyl)-1,2,4-oxadiazol-3-yl]-8-fluoro-5-[(5-isopropoxy-2-pyridyl)methyl]-1,1-dioxo-2,3-dihydro-1λ^6,5-benzothiazepin-4-one]
[1]; Homo sapiens
  Emax: 100%
  EC50: 5.65 µM
[2]
  EC50: 5.73 µM

## CC(C)Oc1ccc(CN2C(=O)[C@@H](N)CS(=O)(=O)c3cc(F)c(-c4noc(C5CN(C)CC(F)(F)C5)n4)cc32)cn1 (stereo partly drawn) [Example 347, (3R)-3-amino-7-[5-(5,5-difluoro-1-methyl-3-piperidyl)-1,2,4-oxadiazol-3-yl]-8-fluoro-5-[(6-isopropoxy-3-pyridyl)methyl]-1,1-dioxo-2,3-dihydro-1λ^6,5-benzothiazepin-4-one]
[1]; Homo sapiens
  Emax: 151%
  EC50: 0.977 µM
[2]
  EC50: 3.5 µM

## COC(=O)N1CCC(c2nc(-c3cc4c(cc3F)S(=O)(=O)C[C@H](N)C(=O)N4Cc3ccc(OC(C)C)cc3)no2)C1 (stereo partly drawn) [Example 349]
[1]; Homo sapiens
  Emax: 124%
  EC50: 0.399 µM
[2]
  EC50: 1.33 µM

## COC(F)(c1nc(-c2cc3c(cc2F)S(=O)(=O)C[C@H](N)C(=O)N3Cc2ccccc2)no1)C(F)(F)F (stereo partly drawn) [Example 351, (3R)-3-amino-5-benzyl-8-fluoro-1,1-dioxo-7-[5-(1,2,2,2-tetrafluoro-1-methoxy-ethyl)-1,2,4-oxadiazol-3-yl]-2,3-dihydro-1λ^6,5-benzothiazepin-4-one]
[1]; Homo sapiens
  Emax: 107%
  EC50: 0.113 µM
[2]
  EC50: 0.288 µM

## CN(C)C(=O)c1nc(-c2cc3c(cc2F)S(=O)(=O)C[C@H](N)C(=O)N3Cc2ccc(OC(F)(F)C(F)F)cc2)no1 [Example 352, 3-[(3R)-3-amino-8-fluoro-1,1,4-trioxo-5-[[4-(1,1,2,2-tetrafluoroethoxy)phenyl]methyl]-2,3-dihydro-1λ^6,5-benzothiazepin-7-yl]-N,N-dimethyl-1,2,4-oxadiazole-5-carboxamide]
[1]; Homo sapiens
  Emax: 100%
  EC50: 0.768 µM
[2]
  EC50: 5.74 µM

## CC(C)(C)c1nc(-c2cc3c(cc2F)S(=O)(=O)C[C@H](N)C(=O)N3Cc2ccc(OCC3CCOCC3)cc2)no1 [Example 353, (3R)-3-amino-7-(5-tert-butyl-1,2,4-oxadiazol-3-yl)-8-fluoro-1,1-dioxo-5-[[4-(tetrahydropyran-4-ylmethoxy)phenyl]methyl]-2,3-dihydro-1λ^6,5-benzothiazepin-4-one]
[1]; Homo sapiens
  Emax: 108%
  EC50: 7.24 µM
[2]
  EC50: 3.25 µM

## CC(C)(C)NC(=O)c1nc(-c2ccc3c(c2)N(Cc2ccc(Cl)cc2)C(=O)[C@@H](N)CS3(=O)=O)no1 [Example 354, 3-[(3R)-3-amino-5-[(4-chlorophenyl)methyl]-1,1,4-trioxo-2,3-dihydro-1λ^6,5-benzothiazepin-7-yl]-N-tert-butyl-1,2,4-oxadiazole-5-carboxamide]
[1]; Homo sapiens
  Emax: 77%
  EC50: 4.71 µM
[2]
  EC50: > 10 µM

## CC(C)(C)NC(=O)c1nc(-c2ccc3c(c2)N(Cc2ccc(OC(F)(F)F)cc2)C(=O)[C@@H](N)CS3(=O)=O)no1 [Example 355, 3-[(3R)-3-amino-1,1,4-trioxo-5-[[4-(trifluoromethoxy)phenyl]methyl]-2,3-dihydro-1λ^6,5-benzothiazepin-7-yl]-N-tert-butyl-1,2,4-oxadiazole-5-carboxamide]
[1]; Homo sapiens
  Emax: 65%
  EC50: 1.62 µM
[2]
  EC50: 6.05 µM

## CC(C)(F)c1nc(-c2cc3c(cc2F)S(=O)(=O)C[C@H](N)C(=O)N3Cc2ccc(F)cc2)no1 [Example 358, (3R)-3-amino-8-fluoro-7-[5-(1-fluoro-1-methyl-ethyl)-1,2,4-oxadiazol-3-yl]-5-[(4-fluorophenyl)methyl]-1,1-dioxo-2,3-dihydro-1λ^6,5-benzothiazepin-4-one]
[1]; Homo sapiens
  Emax: 127%
  EC50: 1.86 µM
[2]
  EC50: 9.45 µM

## C#CCC(C)(C)c1nnc(-c2cc3c(cc2F)S(=O)(=O)C[C@H](N)C(=O)N3Cc2ccc(C3(C(F)(F)F)N=N3)cc2)o1 [Example 359, (3R)-3-amino-7-[5-(1,1-dimethylbut-3-ynyl)-1,3,4-oxadiazol-2-yl]-8-fluoro-1,1-dioxo-5-[[4-[3-(trifluoromethyl)diazirin-3-yl]phenyl]methyl]-2,3-dihydro-1λ^6,5-benzothiazepin-4-one]
[1]; Homo sapiens
  Emax: 115%
  EC50: 0.0817 µM
[2]
  EC50: 0.208 µM

## CC(C)(C)c1nnc(-c2ccc3c(c2)N(Cc2ccc(OC(F)(F)F)cc2)C(=O)[C@@H](N)CS3(=O)=O)o1 [Example 360, (3R)-3-amino-7-(5-tert-butyl-1,3,4-oxadiazol-2-yl)-1,1-dioxo-5-[[4-(trifluoromethoxy)phenyl]methyl]-2,3-dihydro-1λ^6,5-benzothiazepin-4-one]
[1]; Homo sapiens
  Emax: 103%
  EC50: 0.384 µM
[2]
  EC50: 0.922 µM

## CC(N)(c1nnc(-c2ccc3c(c2)N(Cc2ccc(Cl)cc2)C(=O)[C@@H](N)CS3(=O)=O)o1)C(F)(F)F (stereo partly drawn) [Example 362, (3R)-3-amino-7-[5-(1-amino-2,2,2-trifluoro-1-methyl-ethyl)-1,3,4-oxadiazol-2-yl]-5-[(4-chlorophenyl)methyl]-1,1-dioxo-2,3-dihydro-1λ^6,5-benzothiazepin-4-one]
[1]; Homo sapiens
  Emax: 84%
  EC50: 3.72 µM
[2]
  EC50: 1.73 µM

## N[C@H]1CS(=O)(=O)c2ccc(-c3nnc(C(F)(F)C(F)(F)F)o3)cc2N(Cc2ccc(Cl)cc2)C1=O [Example 363, (3R)-3-amino-5-[(4-chlorophenyl)methyl]-1,1-dioxo-7-[5-(1,1,2,2,2-pentafluoroethyl)-1,3,4-oxadiazol-2-yl]-2,3-dihydro-1λ^6,5-benzothiazepin-4-one]
[1]; Homo sapiens
  Emax: 50%
[1]
  EC50: > 10 µM
[2]
  EC50: 2.17 µM

## CC(C)(C#N)c1nnc(-c2ccc3c(c2)N(Cc2ccc(Cl)cc2)C(=O)[C@@H](N)CS3(=O)=O)o1 [Example 364, 2-[5-[(3R)-3-amino-5-[(4-chlorophenyl)methyl]-1,1,4-trioxo-2,3-dihydro-1λ^6,5-benzothiazepin-7-yl]-1,3,4-oxadiazol-2-yl]-2-methyl-propanenitrile]
[1]; Homo sapiens
  Emax: 108%
  EC50: 0.928 µM
[2]
  EC50: 0.981 µM

## COC1(c2nnc(-c3ccc4c(c3)N(Cc3ccc(Cl)cc3)C(=O)[C@@H](N)CS4(=O)=O)o2)CC1 [Example 365, (3R)-3-amino-5-[(4-chlorophenyl)methyl]-7-[5-(1-methoxycyclopropyl)-1,3,4-oxadiazol-2-yl]-1,1-dioxo-2,3-dihydro-1λ^6,5-benzothiazepin-4-one]
[1]; Homo sapiens
  Emax: 142%
  EC50: 0.686 µM
[2]
  EC50: 0.957 µM

## N[C@H]1CS(=O)(=O)c2ccc(-c3nnc(C4(C(F)(F)F)CC4)o3)cc2N(Cc2ccc(Cl)cc2)C1=O [Example 366, (3R)-3-amino-5-[(4-chlorophenyl)methyl]-1,1-dioxo-7-[5-[1-(trifluoromethyl)cyclopropyl]-1,3,4-oxadiazol-2-yl]-2,3-dihydro-1λ^6,5-benzothiazepin-4-one]
[1]; Homo sapiens
  Emax: 106%
  EC50: 0.677 µM
[2]
  EC50: 0.584 µM

## CC(C#N)c1nnc(-c2ccc3c(c2)N(Cc2ccc(Cl)cc2)C(=O)[C@@H](N)CS3(=O)=O)o1 (stereo partly drawn) [Example 367, 2-[5-[(3R)-3-amino-5-[(4-chlorophenyl)methyl]-1,1,4-trioxo-2,3-dihydro-1λ^6,5-benzothiazepin-7-yl]-1,3,4-oxadiazol-2-yl]propanenitrile]
[1]; Homo sapiens
  Emax: 87%
  EC50: 3.69 µM
[2]
  EC50: 0.576 µM

## COC(C)(C)c1nnc(-c2ccc3c(c2)N(Cc2ccc(Cl)cc2)C(=O)[C@@H](N)CS3(=O)=O)o1 [Example 368]
[1]; Homo sapiens
  Emax: 103%
  EC50: 6.56 µM
[2]
  EC50: 5.55 µM

## N[C@H]1CS(=O)(=O)c2ccc(-c3nnc(C(F)C(F)(F)F)o3)cc2N(Cc2ccc(Cl)cc2)C1=O (stereo partly drawn) [Example 369, (3R)-3-amino-5-[(4-chlorophenyl)methyl]-1,1-dioxo-7-[5-(1,2,2,2-tetrafluoroethyl)-1,3,4-oxadiazol-2-yl]-2,3-dihydro-1λ^6,5-benzothiazepin-4-one]
[1]; Homo sapiens
  Emax: 114%
[1]
  EC50: 0.466 µM
[2]
  EC50: 1.7 µM

## COC(C#N)c1nnc(-c2ccc3c(c2)N(Cc2ccc(Cl)cc2)C(=O)[C@@H](N)CS3(=O)=O)o1 (stereo partly drawn) [Example 370, 2-[5-[(3R)-3-amino-5-[(4-chlorophenyl)methyl]-1,1,4-trioxo-2,3-dihydro-1λ^6,5-benzothiazepin-7-yl]-1,3,4-oxadiazol-2-yl]-2-methoxy-acetonitrile]
[1]; Homo sapiens
  Emax: 31%
  EC50: > 10 µM
[2]
  EC50: 5.1 µM

## COC1(c2nnc(-c3ccc4c(c3)N(Cc3ccc(Cl)cc3)C(=O)[C@@H](N)CS4(=O)=O)o2)CCOCC1 [Example 371, (3R)-3-amino-5-[(4-chlorophenyl)methyl]-7-[5-(4-methoxytetrahydropyran-4-yl)-1,3,4-oxadiazol-2-yl]-1,1-dioxo-2,3-dihydro-1λ^6,5-benzothiazepin-4-one]
[1]; Homo sapiens
  Emax: 84%
  EC50: 2.76 µM
[2]
  EC50: > 10 µM

## COC(C)(c1nnc(-c2ccc3c(c2)N(Cc2ccc(Cl)cc2)C(=O)[C@@H](N)CS3(=O)=O)o1)C(F)(F)F (stereo partly drawn) [Example 372, (3R)-3-amino-5-[(4-chlorophenyl)methyl]-1,1-dioxo-7-[5-(2,2,2-trifluoro-1-methoxy-1-methyl-ethyl)-1,3,4-oxadiazol-2-yl]-2,3-dihydro-1λ^6,5-benzothiazepin-4-one]
[1]; Homo sapiens
  Emax: 118%
  EC50: 0.367 µM
[2]
  EC50: 1.29 µM
